These results are taken from PubChem BioAssay AID742 (SRMLSC, 2007).

Assay [1] deals with human cells, Her2 expression AlphaScreen; CTG viability. Description: inhibitors of Her2 kinase expression, dose response, cell-based, AlphaScreen, CellTiter-Glo viability (AID 742). The note with it: viability, CellTiter-Glo. In general terms: Alpha assays give light when donor and acceptor beads are brought close together.
Assay in assay [2]: as above
The note with it: human cells, Her2 expression AlphaScreen; CTG viability; at 9.62 µM (top of the series).

The structures appear in SMILES notation. Calls of active or inactive are those of the source. The rule behind the calls is not given here.

As a reminder, the EC50 is the concentration needed to bring the measured effect to its halfway point. The low end stands for a more potent agent, the high end for a less potent agent. Turning to `O=S(=O)(CCSc1nc2ccccc2o1)c1nc2ccccc2s1`, in assay [1], the EC50 was greater than 9.62 µM. The Her2 inhibition in assay [2] was -10.1% (inactive).
For `O=C(CSc1oc(-c2ccccc2)nc1S(=O)(=O)c1ccc(F)cc1)NCC1CCCO1` (stereo not given), in that order: greater than 9.62 µM and 11.4% (inactive).
For `C=C(C)Cn1c(-c2ccc(OC)cc2)nc2ccccc21`, in that order: greater than 9.62 µM and -19.2% (inactive).
In assay [1], `CC1(C)CC(=O)C2(CC3=C(CC(C)(C)CC3=O)O2)C(=O)C1` came in with an EC50 greater than 9.62 µM. In assay [2], the Her2 inhibition is -2.95% (inactive).
For `Cc1cc(-n2c(C)cc(C(=O)CSc3nnnn3-c3ccc(Cl)cc3)c2C)no1`, in that order: greater than 9.62 µM and -6.46% (inactive).
Consider `CCN(CC(=O)NC1CCCCCC1)S(=O)(=O)c1ccccc1`, for which, in assay [1], the EC50 was greater than 9.62 µM. Besides, the Her2 inhibition in assay [2] is -2.97% (inactive).
With `Nc1c(C(=O)Nc2ccccc2)sc2nc(-c3ccco3)ccc12`, the EC50 in assay [1] was greater than 9.62 µM. In addition, the Her2 inhibition in assay [2] is 18.3% (inactive).
`Cc1cccc(C)c1NC1=NCCCS1` displayed an EC50 in assay [1] greater than 9.62 µM. For the same molecule, the Her2 inhibition in assay [2] is 6.69% (inactive).
For `CCC(=O)OC1(C#CCOc2ccc(OC)cc2)CCN(C)CC1`, in that order: greater than 9.62 µM and -12.2% (inactive).
The like results for `CN1CCN(c2ccc(C(N)=O)cc2N)CC1` were, in that order, greater than 9.62 µM and -16.8% (inactive).
Molecule `CCCc1[nH]nc2c1C(c1ccc(OC)c(Cn3nc(C)c(Br)c3C)c1)C(C#N)=C(N)O2` (stereo not given) yielded an EC50 in assay [1] greater than 9.62 µM. Further, in assay [2], the Her2 inhibition is -0.44% (inactive).
Molecule `CC12CCCCC1(O)[N+](=O)C1=C(CCCC1)N2[O-]` (stereo not given) registered an EC50 in assay [1] greater than 9.62 µM. Further, in assay [2], the Her2 inhibition is -13.5% (inactive).
Molecule `CN(C)CCCN1c2ccccc2Sc2ccc(C(F)(F)F)cc21` registered an EC50 in assay [1] greater than 9.62 µM. The Her2 inhibition in assay [2] was 0.74% (inactive).
For `c1ccc(Cc2nn3c(COc4ccccc4)nnc3s2)cc1`, in that order: greater than 9.62 µM and -17.6% (inactive).
Take `CCCCCN=Cc1c(C)[nH]n(-c2nc3ccccc3s2)c1=O`: in assay [1], the EC50 is greater than 9.62 µM. Also, the Her2 inhibition in assay [2] was -1.78% (inactive).
`N#C/C(C(N)=O)=c1/ccc2c(c1)N1C3=C(CCCC3)CC3CCCCC31N=2` (stereo not given) registered a half-maximal effective concentration (EC50) in assay [1] greater than 9.62 µM. Besides, the Her2 inhibition in assay [2] was 4.75% (inactive).
The molecule `Nc1nc(-c2cccs2)c(NC(=O)c2ccccc2)s1` displayed an EC50 in assay [1] greater than 9.62 µM. For the same molecule, the Her2 inhibition in assay [2] is -8.18% (inactive).
Consider `CS(=O)(=O)c1ncc(Cl)c(C(=O)Nc2ccc(N3CCOCC3)cc2)n1`, for which the EC50 in assay [1] was greater than 9.62 µM. In assay [2], the Her2 inhibition was 19.8% (inactive).
For the molecule `CC(C)(C)NC(=O)CSc1ncnc2c1nnn2Cc1ccccc1Cl`, the EC50 in assay [1] was greater than 9.62 µM. The Her2 inhibition in assay [2] is -10.2% (inactive).
In the case of `Nc1ccc2ncccc2c1N`, the EC50 in assay [1] is greater than 9.62 µM. In addition, in assay [2], the Her2 inhibition was 1.77% (inactive).
Turning to `CN1/C(=C/C(=O)c2nc(S(C)(=O)=O)ncc2Cl)C(C)(C)c2ccccc21`, the EC50 in assay [1] is greater than 9.62 µM. For the same molecule, the Her2 inhibition in assay [2] was 23.3% (inactive).
As for `N#CC(C#N)=c1ccc2c(c1)N1C3=C(CCCC3)CC3CCCCC31N=2` (stereo not given), in assay [1], the EC50 was greater than 9.62 µM. The Her2 inhibition in assay [2] is 24.3% (inactive).
For `Cc1ccc(S(=O)(=O)CCC(=O)c2ccc(O)cc2O)cc1`, the EC50 in assay [1] was greater than 9.62 µM. Further, the Her2 inhibition in assay [2] was 1.34% (inactive).
The molecule `CC(C)COC(=O)N1CC(O)CC1C(=O)O` (stereo not given) gave an EC50 in assay [1] greater than 9.62 µM. For the same molecule, the Her2 inhibition in assay [2] was 7.84% (inactive).
For `Cc1c(NC(=O)c2coc(=O)c(Br)c2)c(=O)n(-c2ccccc2)n1C`, in assay [1], the EC50 was greater than 9.62 µM. In assay [2], the Her2 inhibition is 7.39% (inactive).
With `CC(C)n1c(SCc2ccc(Cl)cc2)nc2c1c(=O)[nH]c(=O)n2C`, the EC50 in assay [1] was greater than 9.62 µM. Moreover, in assay [2], the Her2 inhibition was -14.2% (inactive).
The molecule `CCOc1ccc(-c2[nH]ncc2Oc2ccccc2OCC)c(O)c1` came in with an EC50 in assay [1] greater than 9.62 µM. Also, the Her2 inhibition in assay [2] was 1.97% (inactive).
For `COC(=O)CSc1cc(SCC(=O)OC)c(C#N)c(SCC(=O)OC)c1`, in that order: greater than 9.62 µM and 6.74% (inactive).
The molecule `C=CCn1c(SCc2nc3ccccc3c(=O)[nH]2)nnc1-c1cc2cc(Cl)ccc2o1` gave an EC50 in assay [1] greater than 9.62 µM. Moreover, in assay [2], the Her2 inhibition is 5.79% (inactive).
The molecule `C=CCSC1=N/C(=C\C=C\c2ccco2)C(=O)S1` had an EC50 in assay [1] greater than 9.62 µM. The Her2 inhibition in assay [2] is 28.4% (inactive).
`CCN(CCNC(=O)C1CCN(Cc2nc(-c3cccc(Cl)c3)oc2C)CC1)c1ccccc1` showed an EC50 in assay [1] greater than 9.62 µM. Moreover, the Her2 inhibition in assay [2] was -54.8% (inactive).
In assay [1], `CCOC(=O)CC(N)c1ccc2c(c1)OCO2` (stereo not given) displayed an EC50 greater than 9.62 µM. In addition, the Her2 inhibition in assay [2] is -8.02% (inactive).
On to `CCOC(=O)Cn1nnnc1C(CC)N(Cc1cccs1)Cc1cc2ccc(OC)cc2[nH]c1=O` (stereo not given), for which the EC50 in assay [1] is greater than 9.62 µM. Further, the Her2 inhibition in assay [2] was 22.9% (inactive).
Take `COc1ccc(-n2nnc3c(SCC(=O)Nc4ccc5c(c4)OCCO5)ncnc32)cc1`: in assay [1], the EC50 was greater than 9.62 µM. For the same molecule, the Her2 inhibition in assay [2] was -9.58% (inactive).
In assay [1], `Clc1ccc(-n2nnnc2Sc2ncnc3sccc23)cc1` returned an EC50 greater than 9.62 µM. In addition, in assay [2], the Her2 inhibition was -1.39% (inactive).
`COCCn1c(Cc2ccccc2)nnc1SCC(=O)N(C)C` returned a concentration giving a half-maximal response (EC50) in assay [1] greater than 9.62 µM. In assay [2], the Her2 inhibition was 6.46% (inactive).
For `FC(F)(F)c1ccc(N2CCOCC2)c(Nc2nc3ccccc3n3cnnc23)c1`, the EC50 in assay [1] was greater than 9.62 µM. For the same molecule, the Her2 inhibition in assay [2] was -15.5% (inactive).
Take `O=S(=O)(NCc1ccco1)c1cccc2cccnc12`: in assay [1], the EC50 was greater than 9.62 µM. Besides, the Her2 inhibition in assay [2] was -18.5% (inactive).
In turn, `CCOC(=O)c1ccc(N=c2sc(C(=O)OC)cc(=O)n2Cc2ccco2)cc1` gave a concentration for a half-maximal effect (EC50) in assay [1] greater than 9.62 µM. Besides, in assay [2], the Her2 inhibition is -0.92% (inactive).
In assay [1], `C=C(C)COc1ccc(-c2n[nH]c(C)c2Oc2ccccc2OC)c(O)c1` showed an EC50 greater than 9.62 µM. In addition, the Her2 inhibition in assay [2] is -8.71% (inactive).
In turn, `COc1ccc2sc(NC(=O)CC(C)C)nc2c1` had an EC50 in assay [1] greater than 9.62 µM. Also, the Her2 inhibition in assay [2] was 2.84% (inactive).
The like results for `CCn1c2ccccc2c2cc(C3C(C#N)=C(N)Oc4n[nH]c(COC)c43)ccc21` (stereo not given) were, in that order, greater than 9.62 µM and 29.6% (inactive).
`CC(C)N1CCC2(CC1)N=C(c1ccc3c(c1)OCO3)CC(c1cc(Cl)ccc1O)N2` (stereo not given) registered an EC50 in assay [1] greater than 9.62 µM. For the same molecule, the Her2 inhibition in assay [2] is 20.5% (inactive).
For `C=CCc1cccc2cc(C(=O)NC)c(=O)oc12`, in that order: greater than 9.62 µM and 3.58% (inactive).
In assay [1], `O=C(O)c1ccc2c3c(ncnc13)-c1ccccc1C2=O` displayed an EC50 greater than 9.62 µM. Moreover, in assay [2], the Her2 inhibition is -3.54% (inactive).
The like results for `COc1ccc(-c2nnc(SC(=O)N3c4ccccc4Sc4ccccc43)o2)cc1` were, in that order, greater than 9.62 µM and -24.1% (inactive).
In assay [1], `Cc1onc(-c2ccccc2)c1C(=O)n1nnc2ccccc21` yielded an EC50 greater than 9.62 µM. Moreover, in assay [2], the Her2 inhibition was -24.8% (inactive).
On to `CCOC(=O)c1c(NC(=O)CSc2n[nH]c(N)n2)sc(CC)c1C`, for which the EC50 in assay [1] is greater than 9.62 µM. In assay [2], the Her2 inhibition is -10.4% (inactive).
In assay [1], `O=C(CCCCCn1c(=S)[nH]c2cc3c(cc2c1=O)OCO3)N1CCN(C2CCCCC2)CC1` registered an EC50 greater than 9.62 µM. In addition, in assay [2], the Her2 inhibition is 4.12% (inactive).
With `O=C(NCc1cccs1)c1nc2c(nnn2Cc2ccccc2Cl)c(=O)[nH]1`, in assay [1], the EC50 was greater than 9.62 µM. The Her2 inhibition in assay [2] was 45.2% (inactive).
In the case of `CCn1c(=O)c(C(=O)Nc2nc3ccccc3[nH]2)c(O)c2ccccc21`, the EC50 in assay [1] is greater than 9.62 µM. Further, the Her2 inhibition in assay [2] is 41.2% (inactive).
`Cc1ccc(S(=O)(=O)c2c(C)nn(C(C)(C)C)c2OC(=O)c2ccc(Br)o2)cc1` yielded a concentration giving a half-maximal response (EC50) in assay [1] greater than 9.62 µM. Besides, the Her2 inhibition in assay [2] is 4.78% (inactive).
For `CCc1nc(C)ccc1OCC(=O)NCCCN(C)C`, the EC50 in assay [1] was greater than 9.62 µM. In assay [2], the Her2 inhibition is -3% (inactive).
For `CCOC(=O)CCS(=O)(=O)c1nc(-c2ccccc2)cc(C(F)(F)F)n1`, in that order: greater than 9.62 µM and 27.6% (inactive).
For the molecule `O=C(Oc1ccc2c(c1)OCO2)c1cc2c(s1)CCC2`, the EC50 in assay [1] is greater than 9.62 µM. Also, the Her2 inhibition in assay [2] is 41.1% (inactive).
The like results for `CCN(CC)c1ccc2c(Cl)c(Br)c(=O)oc2c1` were, in that order, greater than 9.62 µM and 3.42% (inactive).
Molecule `CCOc1ccc(CNc2ccc3c(c2)ncn3C)cc1` had an EC50 in assay [1] greater than 9.62 µM. Also, the Her2 inhibition in assay [2] was 8.61% (inactive).
Molecule `CCOC(=O)C(C(C)=O)c1c(Br)c(O)c(O)c2c(C(=O)c3ccc(C)cc3)coc12` (stereo not given) showed an EC50 in assay [1] greater than 9.62 µM. The Her2 inhibition in assay [2] is 46.1% (inactive).
Take `CCCCCCCCNC(C)C(O)c1ccc(SC(C)C)cc1` (stereo not given): the half-maximal effective concentration (EC50) in assay [1] is greater than 9.62 µM. For the same molecule, the Her2 inhibition in assay [2] was -16.3% (inactive).
On to `OCCN1CCN(CCCN2c3ccccc3Sc3ccc(C(F)(F)F)cc32)CC1`, for which the EC50 in assay [1] was greater than 9.62 µM. The Her2 inhibition in assay [2] was 12.6% (inactive).
The like results for `Cc1ccc2[nH]cc(C(=O)CN3CCN(c4ccccn4)CC3)c2c1` were, in that order, greater than 9.62 µM and -23.7% (inactive).
`[O-][N+]1=c2ccc(Nc3ccccc3)cc2=NC12CCCCC2` registered an EC50 in assay [1] greater than 9.62 µM. Besides, the Her2 inhibition in assay [2] was -11% (inactive).
Regarding `CCCCC(CC)Cn1c2nc3ccccc3nc2c2c(=N)oc(C)nc21` (stereo not given), the EC50 in assay [1] was greater than 9.62 µM. Besides, the Her2 inhibition in assay [2] was -5.07% (inactive).
The molecule `CCOC(=O)C(NC(C)=O)(N1CCc2ccccc2C1)C(F)(F)F` (stereo not given) came in with a 50% effective concentration (EC50) in assay [1] greater than 9.62 µM. Besides, the Her2 inhibition in assay [2] is -13.1% (inactive).
`Cn1nnnc1Sc1ncnc2scc(-c3ccccc3)c12` gave an EC50 in assay [1] greater than 9.62 µM. Also, the Her2 inhibition in assay [2] is 41.9% (inactive).
